The record followed here is paper PMC11874377, “Fungal-derived methyldeoxaphomins target Plasmodium falciparum segregation through the inhibition of PfActin1” (Proceedings of the National Academy of Sciences of the …, 2025).

Like-named read-outs stand apart in the source and are kept apart here.

Broadly, the EC50 is the concentration at which the effect is half-maximal.

Assay [1] concerns in vitro evolved NPDG-F-resistant Dd2-Pol δ clones (PfActin1 mutations). Description: Resistant parasite phenotyping and cross resistance, SYBR green I EC50 assay, NPDG-F-resistant clones. Type of assay: cell-based, Plasmodium falciparum. As to conditions: for EC50: Plasmodium falciparum, read-out: EC50 (mean ± SEM). The procedure: Cloning by limiting dilution was then performed to isolate individual lines from the bulk population. Due to the multiple mutations identified in the first biological replicate, we isolated four clones from this bulk culture as compared to two clones each from the second and third replicates. These clones were phenotyped via a SYBR green I-based dose–response assay (Table 2 and Fig. 2B). […] The DNA of these clones was then extracted and subjected to whole-genome sequencing.
To investigate whether NPDG-F has the same mode of action as cytochalasin D, we tested our clones for sensitivity to both cytochalasin D and jasplakinolide.
Resistant parasite phenotyping and cross resistance measurement
The EC50 assay was performed at 1% parasitemia, 1% hematocrit with SYBR green I in 96-well plates. The highest final concentration of the methyldeoxaphomin NPDG-F was set at 100 μM. Briefly, the compound was subjected to a 3-fold serial dilution with ten dilution points. Three technical replicates were set up at each dilution point. The Dd2-Pol δ parent line and the resistant parasites at 2% hematocrit and 1% parasitemia were added to the drug media at 1:1 ratio. The plate was incubated at 37°C for 72 hours in a chamber filled with a hypoxic gas mixture (3% oxygen, 5% carbon dioxide, and 92% nitrogen). After incubation, the cells were lysis with lysis buffer (20 mM Tris-HCL, 0.08% saponin, 5 mM EDTA, and 0.8% Triton X-100) containing SYBR green I (10,000X, Thermo Fisher, cat # S7563) overnight. Fluorescence was measured at 485nm excitation and 530nm emission using a PHERAstar FSX plate reader (BMG Labtech, Germany). Dose response curves were graphed with Prism 9 Version 9.5.1. […]

Assay [2] concerns Plasmodium falciparum Dd2-Pol δ. Nature of the assay: In vitro evolution of resistance, bulk culture populations. In kind it is cell-based. Particulars: after selection from 90 nM to 17 μM over 6.3 mo. As to the method: We next sought to identify the molecular target of NPDG-F using in vitro evolution in a hypermutator line Dd2-Pol δ. This line was created to facilitate faster resistance development through the modification of the catalytic residues in DNA polymerase δ via CRISPR-Cas9 ([13]). Three populations of parasites grown in parallel were exposed to increasing concentrations of NPDG-F from the initial 90 nM to a final concentration of 17 μM over 6.3 mo. Once resistance (~4.2-fold) was identified in the 3 bulk culture populations, parasite DNA was extracted, followed by library preparation and whole-genome sequencing. […]
The in vitro evolution was conducted using Plasmodium falciparum Dd2-Pol δ. […] Every 2 or 3 days, parasitemia was determined via Giemsa smear and reset to 2% (for a 3-day split, 1.6 X108 parasites) or 3% (for a 2-day split, 2.4 X108). […] Resistance development was monitored every 3 months through SYBR green I- based EC50 dose response assay as described above. […]
Parasite genomic DNA was extracted from the parent and the resistant lines using DNeasy Blood & Tissue Kit (Qiagen). […] The pooled libraries were sequenced on Illumina NovaSeq 6000 with S4 200 chemistry to generate paired end reads with 100bp in length.
Reads were aligned to Plasmodium falciparum reference genome 3D7 (PlasmoDB v13.0) using an in-house pipeline (Cowell & Winzeler, 2019). […]

Another assay concerns Dd2. Description: Rate of killing assay by flow cytometry. Particulars: 10 × EC50 for 12, 24, or 48 h. In kind it is cell-based, Plasmodium falciparum. The procedure: After a 24 h lag phase, only 10^0.64 parasites are killed within the first replication cycle (48 h). […] We also examined the in vitro killing rate in Dd2 through flow cytometric analysis.
Following the previously described protocol (Collins et al., 2021), compound or vehicle control was added to Dd2 culture in the majority ring stage and incubated for either 12, 24, or 48 h prior to compound removal. Samples were then taken at the time of compound removal, and every 24 h for 6 days for flow analysis with SYBR Green I and Mitotracker Deep red FM. Analysis was performed in Flowjo version 10 with gating using DHA, vehicle, no mitotracker, no staining, and uninfected RBC controls. Cells designated as SYBR positive and mitotracker positive were gated as “viable parasites” and graphed using Graphpad Prism version 10. […]
On the technique in general: A flow cytometer gives signals particle by particle.

Take `C=C1C(C)C2C(Cc3ccccc3)NC(=O)C23C(=O)C=CC(O)C(O)C(C)CC(C)CC=CC3C1O` (centres unmarked) [Methyldeoxaphomin NPDG-F]: the “average EC50 shift, clones from flasks 2 and 3” value in assay [1] (A136S) is recorded as 3.5 fold. In assay [1] (A171V/S and I290L clones), the “average EC50 shift, clones from flask 1” value was determined as 2.6 fold. In addition, the EC50 in assay [1] (DD2, clone 1-C7, A171S (8%), A171V (92%), I290L) came to 11.5 µM; in assay [1] (DD2, clone 1-D6, A171S (3%), A171V (97%), I290L), 7.79 µM; in assay [1] (DD2, clone 1-D7, A171S (22%), A171V (78%), I290L), 9.02 µM; in assay [1] (DD2, clone 1-F3, A171S (4%), A171V (96%), I290L), 7.04 µM; in assay [1] (DD2, clone 2-C4, A136S), 14.1 µM; in assay [1] (DD2, clone 2-F5, A136S), 10.2 µM. The 50% effective concentration (EC50) in assay [1] (DD2, clone 3-C3, A136S) turned out to be 12.7 µM; in assay [1] (DD2, clone 3-C5, A136S), 10 µM. The Fold change in assay [1] (clone 1-C7 vs Dd2-Pol δ parent) was found to be 3.3; in assay [1] (clone 1-D6 vs Dd2-Pol δ parent), 2.3; in assay [1] (clone 1-D7 vs Dd2-Pol δ parent), 2.6; in assay [1] (clone 1-F3 vs Dd2-Pol δ parent), 2.1; in assay [1] (clone 2-C4 vs Dd2-Pol δ parent), 4.1; in assay [1] (clone 2-F5 vs Dd2-Pol δ parent) it was 3.0. Also, the figures for the Fold change in assay [1] (clone 3-C3 vs Dd2-Pol δ parent) and in assay [1] (clone 3-C5 vs Dd2-Pol δ parent) were 3.7 and 2.9, respectively. In addition, in assay [2], the “resistance in the 3 bulk culture populations” value is ~ 4.2 fold. In addition, the “in vitro killing rate phenotype” value with Dd2 was “delayed inhibition phenotype and a cytocidal killing profile”.
